Measured values: PMC5392048 (Journal of Central Nervous System Disease, 2017)

Key:
[1] = Unbound plasma concentration-time profile of the inhibitors in rats; format: in vivo, rat
[2] = test system: P-gp; details: read-out: inhibitory concentration (Ki) for P-gp; cited from earlier work
[3] = test system: OATP1B1; details: read-out: Ki for the uptake transporters (OATP1B1); cited from earlier work

Row | time unbound plasma level maintained above Ki (Iu/Ki > 1) ([1]; elacridar 5 mg/kg iv, rat plasma, Ki for P-gp) | unbound peak plasma concentration relative to Ki for P-gp ([1]; elacridar 5 mg/kg iv, rat plasma, peak concentration) [fold] | maximum unbound concentration in plasma ([1]; rifampicin 30 mg/kg oral, rat) [µM] | SMILES | Ki [2] [nM] | Ki [3] [nM]
1 | ~ 15 hours | […] | – | COc1cc2c(cc1OC)CN(CCc1ccc(NC(=O)c3cccc4c(=O)c5cccc(OC)c5[nH]c34)cc1)CC2 [elacridar] | […] | –
2 | – | – | 1.8 | CO[C@H]1/C=C/O[C@@]2(C)Oc3c(C)c(O)c4c(O)c(c(/C=N/N5CCN(C)CC5)c(O)c4c3C2=O)NC(=O)/C(C)=C\C=C\[C@H](C)[C@H](O)[C@@H](C)[C@@H](O)[C@@H](C)[C@H](OC(C)=O)[C@@H]1C [rifampicin] | – | 1100
